Earlier results in patent US20220370477A1, “Solid Oral Dosage Forms Of Dexamethasone” (Jubilant Generics Limited, priority 2021, published 2022).
“Also recorded” adds a separate entry of the source. Read-outs that look alike come from different tables or passages of the source.

Solubility (in acetone): sparingly soluble | Solubility (in dichloromethane): slightly soluble | Solubility (in ethanol): sparingly soluble | Solubility (in methanol): sparingly soluble
Compound: C[C@@H]1C[C@H]2[C@@H]3CCC4=CC(=O)C=C[C@]4(C)[C@@]3(F)[C@@H](O)C[C@]2(C)[C@@]1(O)C(=O)CO [Dexamethasone, 9-fluoro-11β,17,21trihydroxy-16α-methylpregna-1,4-diene-3 ,20-dione]
Solubility (in water): practically insoluble; also recorded: poorly water-soluble
